# Source: patent US6465509B2, “Pyrones as inhibitors of cyclooxygenase-2” (Merck Frosst Canada & Co., priority 2000, dated 2002)
# How the values were obtained:
# COX-1 = COX-1 (Homo sapiens, UniProt P23219); test: Assay of COX-1 activity from U937 cell microsomes; assay type: biochemical; parameters: endogenous in cells; host or cells: U937 cells, 100,000 x g microsomal pellet; conditions: PGE2, read-out: COX-1 (IC50 μM) U-937
# Protocol: Assay of COX-1 Activity from U937 cell microsomes
# U937 cells are pelleted by centrifugation at 500×g for 5 min and washed once with phosphate-buffered saline and repelleted. Cells are resuspended in homogenization buffer consisting of 0.1M Tris-HCl, pH 7.4, 10 mM EDTA, 2 μg/ml leupeptin, 2 μg/ml soybean trypsin inhibitor, 2 μg/ml aprotinin and 1 mM phenyl methyl sulfonyl fluoride. The cell suspension is sonicated 4 times for 10 sec and is centrifuged at 10,000×g for 10 min at 4° C. The supernatant is centrifuged at 100,000×g for 1 hr at 4° C. The 100,000×g microsomal pellet is resuspended in 0.1M Tris-HCl, pH 7.4, 10 mM EDTA to approximately 7 mg protein/ml and stored at −80° C.
# Microsomal preparations are thawed immediately prior to use, subjected to a brief sonication, and then diluted to a protein concentration of 125 μg/ml in 0.1 M Tris-HCl buffer, pH 7.4 containing 10 mM EDTA, 0.5 mM phenol, 1 mM reduced glutathione and 1 μM hematin. Assays are performed in duplicate in a final volume of 250 μl. Initially, 5 μl of DMSO vehicle or drug in DMSO are added to 20 μl of 0.1M Tris-HCl buffer, pH 7.4 containing 10 mM EDTA in wells of a 96-deepwell polypropylene titre plate. 200 μl of the microsomal preparation are then added and pre-incubated for 15 min at room temperature before addition of 25 μl of […] arachidonic acid in 0.1M Tris-HCl and 10 mM EDTA, pH 7.4. Samples are incubated for 40 min at room temperature and the reaction is stopped by the addition of 25 μl of 1N HCl. Samples are neutralized with 25 μl of 1N NaOH prior to quantitation of PGE2 content by radioimmunoassay (Dupont-NEN or Amersham assay kits). Cyclooxygenase activity is defined as the difference between PGE2 levels in samples incubated in the presence of arachidonic acid and ethanol vehicle.
# Compounds of the present invention are inhibitors of cyclooxygenase-2 and are thereby useful in the treatment of cyclooxygenase-2 mediated diseases as enumerated above. The activities of the compounds against cyclooxygenase may be seen in the representative results shown below. In the assay, inhibition is determined by measuring the amount of prostaglandin E2 (PGE2) synthesized in the presence of arachidonic acid, cyclooxygenase-1 or cyclooxygenase-2 and a putative inhibitor. The IC50 values represent the concentration of putative inhibitor required to return PGE2 synthesis to 50% of that obtained as compared to the uninhibited control.
# COX-2 = molecular target: T1, COX-2 (Homo sapiens, UniProt P35354); test: Human whole blood assay, COX-2 (LPS-induced PGE2 production); assay type: cell-based; parameters: endogenous in cells; host or cells: fresh heparinized human whole blood from volunteers, incubated with LPS; conditions: LPS-induced PGE2, 24 hours at 37° C., read-out: COX-2 (IC50 μM) HWB
# T1 sequence (P35354 18-604): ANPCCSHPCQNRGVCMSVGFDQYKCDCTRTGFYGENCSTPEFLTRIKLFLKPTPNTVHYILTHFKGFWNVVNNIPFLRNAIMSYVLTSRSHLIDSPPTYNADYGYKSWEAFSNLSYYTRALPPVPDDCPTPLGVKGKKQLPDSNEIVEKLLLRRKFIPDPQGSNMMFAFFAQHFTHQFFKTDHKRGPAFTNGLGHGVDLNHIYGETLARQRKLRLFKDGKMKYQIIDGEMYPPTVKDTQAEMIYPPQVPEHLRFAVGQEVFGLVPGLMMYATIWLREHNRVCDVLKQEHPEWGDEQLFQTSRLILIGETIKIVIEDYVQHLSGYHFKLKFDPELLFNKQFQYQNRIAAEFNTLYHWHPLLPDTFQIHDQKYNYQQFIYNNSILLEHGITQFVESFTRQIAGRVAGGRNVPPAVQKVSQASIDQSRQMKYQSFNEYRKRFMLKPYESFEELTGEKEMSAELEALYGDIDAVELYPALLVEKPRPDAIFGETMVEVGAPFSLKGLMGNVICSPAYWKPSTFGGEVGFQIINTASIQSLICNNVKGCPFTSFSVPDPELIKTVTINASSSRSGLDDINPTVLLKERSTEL
# Protocol: Human whole blood provides a protein and cell-rich milieu appropriate for the study of biochemical efficacy of anti-inflammatory compounds such as selective COX-2 inhibitors. […] This is consistent with the observation that COX-2 inhibitors have no effect on PGE2 production in normal blood. These inhibitors are active only after incubation of human whole blood with LPS, which induces COX-2. This assay can be used to evaluate the inhibitory effect of selective COX-2 inhibitors on PGE2 production. As well, platelets in whole blood contain a large amount of the COX-1 enzyme. Immediately following blood clotting, platelets are activated through a thrombin-mediated mechanism. This reaction results in the production of thromboxane B2 (TxB2) via activation of COX-1. Thus, the effect of test compounds on TxB2 levels following blood clotting can be examined and used as an index for COX-1 activity. Therefore, the degree of selectivity by the test compound can be determined by measuring the levels of PGE2 after LPS induction (COX-2) and TxB2 following blood clotting (COX-1) in the same assay.
# A. COX-2 (LPS-induced PGE2 production)
# Fresh blood is collected in heparinized tubes by venipuncture from both male and female volunteers. The subjects have no apparent inflammatory conditions and have not taken any NSAIDs for at least 7 days prior to blood collection. Plasma is immediately obtained from a 2 mL blood aliquot to use as blank (basal levels of PGE2). The remaining blood is incubated with LPS (100 μg/ml final concentration, Sigma Chem, #L-2630 from E. coli; diluted in 0.1% BSA (Phosphate buffered saline) for 5 minutes at room temperature. Five hundred μL aliquots of blood are incubated with either 2 μL of vehicle (DMSO) or 2 μL of a test compound at final concentrations varying from 10 nM to 30 μM for 24 hours at 37° C. At the end of the incubation, the blood is centrifuged at 12,000×g for 5 minutes to obtain plasma. A 100 μL aliquot of plasma is mixed with 400 μL of methanol for protein precipitation. The supernatant is obtained and is assayed for PGE2 using a radioimmunoassay kit (Amersham, RPA#530) after conversion of PGE2 to its methyl oximate derivative according to the manufacturer's procedure.
# Sequence of COX-1 (P23219 24-599): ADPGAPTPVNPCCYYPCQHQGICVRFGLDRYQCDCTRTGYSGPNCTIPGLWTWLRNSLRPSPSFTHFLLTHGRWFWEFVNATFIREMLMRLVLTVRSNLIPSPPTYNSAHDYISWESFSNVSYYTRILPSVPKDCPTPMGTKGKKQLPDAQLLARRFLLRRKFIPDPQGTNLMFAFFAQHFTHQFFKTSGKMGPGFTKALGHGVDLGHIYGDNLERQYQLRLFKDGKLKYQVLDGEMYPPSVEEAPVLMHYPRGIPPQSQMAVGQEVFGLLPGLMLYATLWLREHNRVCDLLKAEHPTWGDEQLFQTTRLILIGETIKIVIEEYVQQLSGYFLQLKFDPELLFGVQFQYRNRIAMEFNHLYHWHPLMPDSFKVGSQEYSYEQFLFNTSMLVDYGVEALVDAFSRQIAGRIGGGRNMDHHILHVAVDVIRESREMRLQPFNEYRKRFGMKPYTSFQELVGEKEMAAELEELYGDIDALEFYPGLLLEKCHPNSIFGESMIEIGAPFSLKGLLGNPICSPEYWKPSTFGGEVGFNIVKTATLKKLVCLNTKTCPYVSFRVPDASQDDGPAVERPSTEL
IC50 (COX-1) [µM],IC50 (COX-2) [µM],Compound
1 to 3,0.5,"Cc1cc(-c2ccc(S(C)(=O)=O)cc2)c(Sc2ccccc2)c(=O)o1 [Example 7, 6-Methyl-4-(4-(methylsulfonyl)phenyl)-3-phenylthio-pyran-2-one]"
1 to 3,< 0.4,"Cc1cc(-c2ccc(S(C)(=O)=O)cc2)c(Oc2ccccc2)c(=O)o1 [Example 8, 6-Methyl-4-(4-(methylsulfonyl)phenyl)-3-phenoxy-pyran-2-one]"
0.3 to 1,0.6,Cc1cc(-c2ccc(S(C)(=O)=O)cc2)c(-c2cccnc2)c(=O)o1 [Example 9]
> 10,1.3,"Cc1cc(-c2ccc(S(C)(=O)=O)cc2)c(SC(C)C)c(=O)o1 [Example 10, 3-Isopropylthio-6-methyl-4-(4-(methylsulfonyl)phenyl)-pyran-2-one]"
14,0.3 to 1,"CS(=O)(=O)c1ccc(-c2cc(C(F)(F)F)oc(=O)c2Sc2ccccc2)cc1 [Example 11, 4-(4-(Methylsulfonyl)phenyl)-3-phenylthio-6-trifluoromethyl-pyran-2-one]"
>33,1 to 3,"CC(C)Sc1c(-c2ccc(S(C)(=O)=O)cc2)cc(C(F)(F)F)oc1=O [Example 12, 3-Isopropylthio-4-(4-(methylsulfonyl)phenyl)-6-trifluoromethyl-pyran-2-one]"
> 10,1.2,"Cc1cc(-c2ccc(S(C)(=O)=O)cc2)c(CCC(C)(C)O)c(=O)o1 [Example 14, 3-(3-Hydroxy-3-methylbutyl)-6-methyl-4-(4-methylsulfonyl)phenyl-pyran-2-one]"

# The remaining lines, values behind:
Compound,IC50 (COX-1) [µM],IC50 (COX-2) [µM]
"CS(=O)(=O)c1ccc(-c2ccoc(=O)c2-c2ccccc2)cc1 [Example 1, 4-(4-Methylsulfonyl)phenyl-3-phenyl-pyran-2-one]",> 10,2.6
"Cc1cc(-c2ccc(S(C)(=O)=O)cc2)c(-c2ccc(F)cc2)c(=O)o1 [Example 2, 3-(4-Fluorophenyl)-6-methyl-4-(4-methylsulfonyl)phenyl-pyran-2-one]",0.3 to 1,< 0.4
"Cc1cc(-c2ccc(S(C)(=O)=O)cc2)c(-c2cccc(F)c2)c(=O)o1 [Example 3, 3-(3-Fluorophenyl)-6-methyl-4-(4-methylsulfonyl)phenyl-pyran-2-one]",3 to 10,< 0.4
"Cc1cc(-c2ccc(S(C)(=O)=O)cc2)c(-c2ccccc2)c(=O)o1 [Example 4, 6-Methyl-4-(4-methylsulfonyl)phenyl-3-phenyl-pyran-2-one]",1,< 0.4
"CS(=O)(=O)c1ccc(-c2cc(C(F)F)oc(=O)c2-c2ccccc2)cc1 [Example 5, 6-Difluoromethyl-4-(4-methylsulfonyl)phenyl-3-phenyl-pyran-2-one]",0.3 to 1,1.8
"CS(=O)(=O)c1ccc(-c2cc(CF)oc(=O)c2-c2ccccc2)cc1 [Example 6, 6-Fluoromethyl-4-(4-methylsulfonyl)phenyl-3-phenyl-pyran-2-one]",~1,3.1
